In PubChem BioAssay AID248 (DTP/NCI, 2004):
Several values for one entry are separate records, joined by “and”; a condition that tells them apart may be missing. Equal values may be shown once. Toxic doses and inconclusive results are not listed. Cut-off read from the data, not from the text of the source: active = T/C of 150% or more; inactive = T/C below 125%.

Test system: L1210 leukemia ip in BDF1 mice, survival T/C
Experiment: NCI In Vivo Anticancer Drug Screen. Data for tumor model L1210 Leukemia (intraperitoneal) in B6D2F1 (BDF1) mice
Settings: endpoint: mean survival time, higher = longer survival
How it was run: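 Tumor cells were implanted, animals were treated, and survival was followed. The result divides the treated measurement by the vehicle-control measurement.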

[1] = dose: 100.0 mg/kg/injection, schedule: Q01DX001 (ip), vehicle: saline
[2] = dose: 200.0 mg/kg/injection, schedule: Q01DX001 (ip), vehicle: saline
[3] = dose: 400.0 mg/kg/injection, schedule: Q01DX001 (ip), vehicle: saline
[4] = dose: 100.0 mg/kg/injection, schedule: Q01DX009 (ip), vehicle: Klucel (hydroxypropylcellulose) (HPC)
[5] = dose: 100.0 mg/kg/injection, schedule: Q04DX003 (ip), vehicle: Klucel (hydroxypropylcellulose) (HPC)
[6] = dose: 200.0 mg/kg/injection, schedule: Q01DX009 (ip), vehicle: Klucel (hydroxypropylcellulose) (HPC)
[7] = dose: 200.0 mg/kg/injection, schedule: Q04DX003 (ip), vehicle: Klucel (hydroxypropylcellulose) (HPC)
[8] = dose: 400.0 mg/kg/injection, schedule: Q01DX009 (ip), vehicle: Klucel (hydroxypropylcellulose) (HPC)
[9] = dose: 400.0 mg/kg/injection, schedule: Q04DX003 (ip), vehicle: Klucel (hydroxypropylcellulose) (HPC)
[10] = dose: 100.0 mg/kg/injection, schedule: Q04DX003 (ip), vehicle: saline with Tween-80
[11] = dose: 200.0 mg/kg/injection, schedule: Q04DX003 (ip), vehicle: saline with Tween-80
[12] = dose: 400.0 mg/kg/injection, schedule: Q04DX003 (ip), vehicle: saline with Tween-80

Measured: T/C

O=C(O)/C=C\C(=O)Nc1ccccn1
inactive: [1] 92 % of control | [2] 100 % of control | [3] 103 % of control

COc1ccc(CCNC(=O)C2CCN(CCc3ccc(OC)c(OC)c3)CC2)cc1OC
inactive: dose: 100.0 mg/kg/injection, schedule: Q01DX001 (ip), vehicle: carboxymethylcellulose (CMC) 102 % of control | dose: 200.0 mg/kg/injection, schedule: Q01DX001 (ip), vehicle: carboxymethylcellulose (CMC) 96 % of control | dose: 400.0 mg/kg/injection, schedule: Q01DX001 (ip), vehicle: carboxymethylcellulose (CMC) 89 % of control

Cc1cccc(C)c1N=Nc1sc(N)nc1C
inactive: dose: 75.0 mg/kg/injection, schedule: Q01DX001 (ip), vehicle: acetone 114 % of control | dose: 150.0 mg/kg/injection, schedule: Q01DX001 (ip), vehicle: acetone 94 % of control | dose: 300.0 mg/kg/injection, schedule: Q01DX001 (ip), vehicle: acetone 110 % of control

CCCCCC(Oc1ccc(Cl)cc1Cl)C(=O)O (configuration not stated)
inactive: dose: 100.0 mg/kg/injection, schedule: Q04DX002 (ip), vehicle: Klucel (hydroxypropylcellulose) (HPC) 100 % of control | dose: 200.0 mg/kg/injection, schedule: Q04DX002 (ip), vehicle: Klucel (hydroxypropylcellulose) (HPC) 97 % of control

O=C1C2CCC(=O)N2c2ccccc2S(=O)(=O)C1c1ccccc1 (configuration not stated)
inactive: dose: 12.5 mg/kg/injection, schedule: Q01DX009 (ip), vehicle: Klucel (hydroxypropylcellulose) (HPC) 95 % of control | dose: 25.0 mg/kg/injection, schedule: Q01DX009 (ip), vehicle: Klucel (hydroxypropylcellulose) (HPC) 98 % of control | dose: 25.0 mg/kg/injection, schedule: Q04DX003 (ip), vehicle: Klucel (hydroxypropylcellulose) (HPC) 96 % of control | dose: 50.0 mg/kg/injection, schedule: Q01DX009 (ip), vehicle: Klucel (hydroxypropylcellulose) (HPC) 91 % of control | dose: 50.0 mg/kg/injection, schedule: Q04DX003 (ip), vehicle: Klucel (hydroxypropylcellulose) (HPC) 96 % of control

CC(C)(c1cc(Br)c(O)c(Br)c1)c1cc(Br)c(O)c(Br)c1
inactive: [4] 93 % of control | [5] 100 % of control | [6] 94 % of control | [7] 92 % of control | [8] 91 % of control | [9] 103 % of control

O=C(Nc1ccccc1)C1C2C=CC(CC2)C1C(=O)Nc1ccccc1 (configuration not stated)
inactive: [10] 98 % of control | [11] 107 % of control | [12] 98 % of control

O=C/C(Br)=C(\Br)C(=O)O
inactive: dose: 12.5 mg/kg/injection, schedule: Q01DX001 (ip), vehicle: carboxymethylcellulose (CMC) 93 % of control | dose: 12.5 mg/kg/injection, schedule: Q01DX009 (ip), vehicle: carboxymethylcellulose (CMC) 95 % of control | dose: 12.5 mg/kg/injection, schedule: Q04DX002 (ip), vehicle: carboxymethylcellulose (CMC) 97 % of control | dose: 12.5 mg/kg/injection, schedule: Q04DX003 (ip), vehicle: carboxymethylcellulose (CMC) 97 % of control | dose: 25.0 mg/kg/injection, schedule: Q01DX001 (ip), vehicle: carboxymethylcellulose (CMC) 93 % of control | dose: 25.0 mg/kg/injection, schedule: Q01DX009 (ip), vehicle: carboxymethylcellulose (CMC) 98 % of control and 92 % of control | dose: 25.0 mg/kg/injection, schedule: Q04DX002 (ip), vehicle: carboxymethylcellulose (CMC) 93 % of control and 98 % of control | dose: 25.0 mg/kg/injection, schedule: Q04DX003 (ip), vehicle: carboxymethylcellulose (CMC) 103 % of control | dose: 50.0 mg/kg/injection, schedule: Q01DX001 (ip), vehicle: carboxymethylcellulose (CMC) 106 % of control | dose: 50.0 mg/kg/injection, schedule: Q01DX009 (ip), vehicle: carboxymethylcellulose (CMC) 96 % of control | dose: 50.0 mg/kg/injection, schedule: Q04DX002 (ip), vehicle: carboxymethylcellulose (CMC) 90 % of control

COC(=O)C(Br)CBr (configuration not stated)
inactive: dose: 25.0 mg/kg/injection, schedule: Q01DX009 (ip), vehicle: saline 100 % of control | dose: 50.0 mg/kg/injection, schedule: Q01DX009 (ip), vehicle: saline 105 % of control | dose: 100.0 mg/kg/injection, schedule: Q01DX009 (ip), vehicle: saline 98 % of control and 105 % of control | dose: 100.0 mg/kg/injection, schedule: Q04DX003 (ip), vehicle: saline 102 % of control | dose: 200.0 mg/kg/injection, schedule: Q04DX003 (ip), vehicle: saline 116 % of control

CC/C(C)=C(/C(=O)O)c1ccccc1
inactive: [10] 91 % of control | [11] 94 % of control | [12] 94 % of control

Cc1cccc(N2CCNCC2)c1
inactive: dose: 6.25 mg/kg/injection, schedule: Q04DX003 (ip), vehicle: saline 93 % of control | dose: 12.5 mg/kg/injection, schedule: Q04DX003 (ip), vehicle: saline 96 % of control | dose: 25.0 mg/kg/injection, schedule: Q04DX002 (ip), vehicle: saline with Tween-80 101 % of control | dose: 25.0 mg/kg/injection, schedule: Q04DX003 (ip), vehicle: saline 102 % of control | dose: 50.0 mg/kg/injection, schedule: Q04DX002 (ip), vehicle: saline with Tween-80 92 % of control

COc1ccccc1NC(=O)NNC(=O)CCCC(=O)NNC(=O)Nc1ccccc1OC
inactive: dose: 50.0 mg/kg/injection, schedule: Q01DX001 (ip), vehicle: saline 100 % of control | [1] 97 % of control | [2] 103 % of control | [3] 97 % of control

O=[N+]([O-])c1ccc(O)c(/C=N/Nc2c3ccccc3nc3ccccc23)c1
inactive: [1] 103 % of control | [2] 95 % of control | [3] 92 % of control

CCCCCCCCNc1cc2c3c(c1)CCCN3CCC2
inactive: dose: 0.78 mg/kg/injection, schedule: Q01DX009 (ip), vehicle: alcohol 110 % of control | dose: 1.56 mg/kg/injection, schedule: Q01DX009 (ip), vehicle: alcohol 102 % of control | dose: 1.56 mg/kg/injection, schedule: Q04DX003 (ip), vehicle: alcohol 102 % of control | dose: 3.12 mg/kg/injection, schedule: Q01DX009 (ip), vehicle: alcohol 113 % of control | dose: 3.12 mg/kg/injection, schedule: Q04DX003 (ip), vehicle: alcohol 108 % of control | dose: 6.25 mg/kg/injection, schedule: Q04DX003 (ip), vehicle: alcohol 97 % of control | dose: 25.0 mg/kg/injection, schedule: Q04DX003 (ip), vehicle: alcohol 88 % of control

CCCCOC(=O)OCNC(=O)Oc1ccc(Br)cc1Br
inactive: [4] 92 % of control | [6] 94 % of control | [8] 101 % of control

COc1cc([N+](=O)[O-])ccc1C#N
inactive: [5] 113 % of control | [9] 96 % of control

OCC1OC(c2ccccc2)OC2C(CO)OC(c3ccccc3)OC12 (configuration not stated)
inactive: [10] 93 % of control | [11] 96 % of control | [12] 89 % of control

CCOC1=CCN(S(=O)(=O)c2ccc(C)cc2)c2ccc(OC)cc21
inactive: [4] 100 % of control | [5] 104 % of control | [6] 96 % of control | [7] 94 % of control | [8] 89 % of control | [9] 98 % of control
